From patent publication US7534436B2, “Peptide fragments of the harp factor inhibiting angiogenesis” (Centre National de la Recherche Scientifique (C.N.R.S.), priority 2002, dated 2009)
Where a SMILES comes first, the peptide text is derived from it.

B1: HARP: angiogenic heparin binding growth factor, mature protein of 136 or 139 amino acids (protein, UniProt P21246 33-168, looked up)
Pleiotrophin: GKKEKPEKKVKKSDCGEWQWSVCVPTSGDCGLGTREGTRTGAECKQTMKTQRCKIPCNWKKQFGAECKYQFQAWGECDLNTALKTRTGSLKRALHNAECQKTVTISKPCGKLTKPKPQAESKKKKKEGKKQEKMLD

Assays:
[1] = test system: NIH 3T3 cells stimulated by HARP; settings: 24 h, 10 μM
Procedure: After 24 hours' incubation the cellular proliferation is estimated by measurement of the tritiated thymidine incorporated by the cells.
Fibroblast cells of type NIH 3T3 are cultured at a density of 3×10^4 cells per cm^2 in DMEM culture medium supplemented with 10% of foetal calf serum. […] After this period of incubation, 0.5 μCi of [methyl-^3H]thymidine is added and 6 hours afterwards the cells are fixed by a 10% solution of trichloroacetic acid. The radioactivity incorporated by the cells is then counted by liquid scintillation after having effected a cell lysis with a solution of sodium hydroxide at a concentration of 0.1 N.

[2] = test system: angiogenesis induced by FGF-2; assay: In vivo Matrigel angiogenesis model, angiogenesis induced by FGF-2 (specificity control); parameters: species or system Swiss mice; settings: peptide 1 μM with FGF-2 10 nM in Matrigel; day 7
Procedure: (§1) FIG. 6 represents the inhibition by the HARP peptides 13-39 and 65-97 of the angiogenesis induced by HARP in an in vivo model. Three hundred microlitres of Matrigel® incubated with 5 nM of HARP in the presence or absence of the HARP peptides 13-39 and 65-97 used at a concentration of 1 μM are injected subcutaneously into a mouse. The control of the experiment is achieved using FGF-2. Seven days later the mice are sacrificed and the Matrigel® is removed. Sections having a thickness of 8 μM are produced. The sections are then stained with Trichrome from Gomori. The number of cells which have invaded the Matrigel® is quantified by image analysis with NIH software. The results represent the mean value of an analysis of 7 sections per mouse (n=4 mice/group). The bars represent the standard margins for error (**, p<0.01).
(§2) This experiment was carried out using an in vivo angiogenesis model in mice. This experimental model consists in injecting Matrigel® containing a substance to be analysed for its angiogenesis stimulating or inhibiting properties. […]
(§3) The mice are sacrificed seven days after the injection of the Matrigel®. […] The number of endothelial cells which have invaded the Matrigel® is quantified by image analysis using NIH imaging software.

[3] = test system: angiogenesis induced by HARP; assay: In vivo Matrigel angiogenesis model, angiogenesis induced by HARP; parameters: species or system Swiss mice; settings: peptide 1 μM with HARP 5 nM in Matrigel, subcutaneous; day 7
Procedure: as §1, §2, §3

[4] = test system: endothelial cells which have invaded the Matrigel; assay: In vivo Matrigel angiogenesis model, substance used alone; parameters: species or system Swiss mice; settings: day 7; for effect on angiogenesis when peptide used alone: peptide 1 μM alone in Matrigel; for increase in the number of endothelial cells by comparison with Matrigel used by itself: HARP 5 nM or FGF-2 10 nM in Matrigel
Procedure: as §1
This experiment was carried out using an in vivo angiogenesis model in mice. This experimental model consists in injecting Matrigel® containing a substance to be analysed for its angiogenesis stimulating or inhibiting properties. Four Swiss mice (Janvier, Genest St Isle, France) per group are injected with 300 μl of Matrigel® previously incubated with either 5 nM of HARP, 1 μM of HARP peptide 13-39 or 65-97, or with a mixture of HARP (5 nM) and HARP peptides 13-39 or 65-97 (1 μM). The control of the specificity of the inhibition is carried out using another angiogenic factor, FGF-2, tested either by itself at a concentration of 10 nM or supplemented by the HARP peptides 13-39 or 65-97 used at a concentration of 1 μM.
The mice are sacrificed seven days after the injection of the Matrigel®. This latter is removed and frozen in liquid nitrogen. Sections 8 μM thick are then effected with a cryostat. The sections are then stained with Trichrome from Gomori. The number of endothelial cells which have invaded the Matrigel® is quantified by image analysis using NIH imaging software.

[5] = Bernard-Pierrot et al 2002; cited from earlier work
[6] = test system: PC3 cells (line resulting from prostate cancer); assay: Tumour growth after injection of PC3 cells into nude mice; format: in vivo; settings: 5 mg/kg daily injection in the region of the tumour
Procedure: Two million PC3 cells are injected into groups of 5 nude mice treated or not by daily injection in the region of the tumour with PBS (control) or with the HARP peptide 111-136 at a concentration of 5 mg/kg. The tumour growth for each group of animals is evaluated by measurement of the size of the tumour on day 9, 13, 16, 20, 23 and 27.
The capacity of the peptide P111-136 (SEQ ID NO: 4) to inhibit tumour angiogenesis has been tested by inducing tumour growth by injection of PC3 cells into nude mice in the presence or absence of peptide P111-136. 2×10^6 PC3 cells are injected into groups of 5 nude mice (nude/nude, Laboratoire IFFA CREDO) treated or not by injection in the region of the tumour of 100 μl per day of a solution of PBS (control group) or by a solution of peptide P111-136 diluted in PBS at a concentration of 5 mg/kg. On day 9, 13, 16, 20, 23 and 27 the size of the tumour is measured with the aid of a calliper gauge. The results are presented in FIG. 3 and indicate that the HARP peptide 111-136 used at a dose of 5 mg per kg induces an inhibition of the growth of the tumours.

[7] = test system: endothelial cells in the tumour (PC3); assay: Tumour angiogenesis in PC3 tumours of nude mice (isolectin B4 staining of endothelial cells, image analysis); format: in vivo; settings: day 27; 5 mg/kg daily injection in the region of the tumour
Procedure: Two million PC3 cells are injected into groups of mice treated or not by daily injection in the region of the tumour with PBS (control) or with the peptide 111-136 at a concentration of 5 mg/kg. The mice are sacrificed on day 27. The quantification of the angiogenesis is effected on a section after immunohistological analysis using isolectine Bandeiraea Simplicifolia as a specific marker of the endothelial cells and image analysis. The values presented in the histogram represent the mean value obtained by analysing three independent sections resulting from each of six tumours obtained in each condition.
On day 27, the tumours are removed and freezing sections of 5 μm are produced. […] This lectin is then detected by immunomarking with the aid of a sandwich of specific antibodies marked with alkaline phosphatase. After incubation with a substrate of alkaline phosphatase (Vector Red substrate), the endothelial cells are stained red. The quantification of the number of endothelial cells in the tumour is carried out by image analysis (NIH image) by analysing the 6 tumours on 3 independent sections of one and the same tumour.

[8] = molecular target: anaplastic lymphoma kinase (ALK) (Homo sapiens, UniProt Q9UM73); settings: high affinity tyrosine kinase receptor; Stoica et al, 2001; cited from earlier work
Sequence of anaplastic lymphoma kinase (ALK) (Q9UM73 19-1620, species assumed): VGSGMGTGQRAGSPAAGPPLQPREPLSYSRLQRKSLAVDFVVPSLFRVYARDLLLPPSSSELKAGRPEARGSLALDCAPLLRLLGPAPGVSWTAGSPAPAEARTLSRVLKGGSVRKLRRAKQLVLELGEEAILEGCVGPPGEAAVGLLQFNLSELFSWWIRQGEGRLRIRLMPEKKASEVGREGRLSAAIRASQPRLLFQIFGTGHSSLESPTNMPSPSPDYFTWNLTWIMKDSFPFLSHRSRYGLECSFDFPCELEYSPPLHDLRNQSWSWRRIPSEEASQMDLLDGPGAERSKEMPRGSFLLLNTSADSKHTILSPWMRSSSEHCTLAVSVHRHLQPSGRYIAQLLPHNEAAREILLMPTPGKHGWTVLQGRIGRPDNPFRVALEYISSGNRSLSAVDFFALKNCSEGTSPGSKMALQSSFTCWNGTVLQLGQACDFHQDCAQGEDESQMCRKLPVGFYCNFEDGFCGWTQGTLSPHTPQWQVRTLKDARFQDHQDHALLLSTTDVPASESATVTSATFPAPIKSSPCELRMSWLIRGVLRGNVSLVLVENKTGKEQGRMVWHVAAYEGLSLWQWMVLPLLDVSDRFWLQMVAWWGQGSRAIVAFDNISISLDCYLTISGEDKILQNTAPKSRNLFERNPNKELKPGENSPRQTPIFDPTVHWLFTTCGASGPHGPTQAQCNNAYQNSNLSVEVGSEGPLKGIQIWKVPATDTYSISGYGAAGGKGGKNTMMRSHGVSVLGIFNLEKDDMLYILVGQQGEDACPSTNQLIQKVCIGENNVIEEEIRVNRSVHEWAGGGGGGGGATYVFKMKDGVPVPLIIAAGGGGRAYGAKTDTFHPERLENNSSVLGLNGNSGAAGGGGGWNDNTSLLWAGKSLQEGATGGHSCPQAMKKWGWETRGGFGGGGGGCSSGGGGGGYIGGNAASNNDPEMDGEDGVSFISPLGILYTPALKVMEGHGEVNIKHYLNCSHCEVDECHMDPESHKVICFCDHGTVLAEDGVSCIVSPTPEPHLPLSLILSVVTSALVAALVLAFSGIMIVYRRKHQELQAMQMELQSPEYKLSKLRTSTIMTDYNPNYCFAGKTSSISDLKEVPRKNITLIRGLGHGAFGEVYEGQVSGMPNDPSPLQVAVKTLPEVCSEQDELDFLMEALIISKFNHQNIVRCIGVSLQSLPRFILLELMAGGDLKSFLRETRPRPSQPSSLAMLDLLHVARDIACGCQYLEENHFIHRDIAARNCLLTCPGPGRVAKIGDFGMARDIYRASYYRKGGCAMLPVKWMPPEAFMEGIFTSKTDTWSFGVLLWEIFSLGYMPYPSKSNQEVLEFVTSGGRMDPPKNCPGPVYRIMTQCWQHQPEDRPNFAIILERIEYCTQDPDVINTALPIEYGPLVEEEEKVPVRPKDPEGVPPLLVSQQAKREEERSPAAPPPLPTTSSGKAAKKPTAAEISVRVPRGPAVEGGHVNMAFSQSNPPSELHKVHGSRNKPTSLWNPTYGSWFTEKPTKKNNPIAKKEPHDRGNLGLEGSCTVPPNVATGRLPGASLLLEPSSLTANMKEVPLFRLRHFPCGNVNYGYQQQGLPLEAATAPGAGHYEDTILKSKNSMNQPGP

Molecule	effect on angiogenesis induced by FGF-2 [2]	effect on angiogenesis induced by HARP [3]	effect on angiogenesis when peptide used alone [4]	increase in the number of endothelial cells by comparison with Matrigel used by itself [4]	also measured
CC(C)C[C@H](NC(=O)CNC(=O)[C@H](CS)NC(=O)[C@H](CC(=O)O)NC(=O)CNC(=O)[C@H](CO)NC(=O)[C@@H](NC(=O)[C@@H]1CCCN1C(=O)[C@@H](NC(=O)[C@H](CS)NC(=O)[C@@H](NC(=O)[C@H](CO)NC(=O)[C@H](Cc1c[nH]c2ccccc12)NC(=O)[C@H](CCC(N)=O)NC(=O)[C@H](Cc1c[nH]c2ccccc12)NC(=O)[C@H](CCC(=O)O)NC(=O)CNC(=O)[C@H](CS)NC(=O)[C@H](CC(=O)O)NC(=O)[C@@H](N)CO)C(C)C)C(C)C)[C@@H](C)O)C(=O)NCC(=O)N[C@H](C(=O)N[C@@H](CCCNC(=N)N)C(=O)N[C@@H](CCC(=O)O)C(=O)NCC(=O)N[C@H](C(=O)N[C@@H](CCCNC(=N)N)C(=O)N[C@H](C(=O)O)[C@@H](C)O)[C@@H](C)O)[C@@H](C)O [peptide 13-39] (H-SDCGEWQWSVCVPTSGDCGLGTREGTRT-OH; N-terminus and C-terminus assumed)	no effect	totally inhibit	No significant effect	–	inhibition of the HARP activity (induction of cell proliferation) [1]: 60%
CC(C)C[C@H](NC(=O)[C@H](C)NC(=O)[C@H](CCCNC(=N)N)NC(=O)[C@H](CCCCN)NC(=O)[C@H](CC(C)C)NC(=O)[C@H](CO)NC(=O)CNC(=O)[C@@H](NC(=O)[C@H](CCCNC(=N)N)NC(=O)[C@@H](NC(=O)[C@H](CCCCN)NC(=O)[C@H](CC(C)C)NC(=O)[C@H](C)NC(=O)[C@@H](NC(=O)[C@H](CC(N)=O)NC(=O)[C@H](CC(C)C)NC(=O)[C@H](CC(=O)O)NC(=O)[C@H](CS)NC(=O)[C@H](CCC(=O)O)NC(=O)CNC(=O)[C@H](Cc1c[nH]c2ccccc12)NC(=O)[C@H](C)NC(=O)[C@H](CCC(N)=O)NC(=O)[C@H](Cc1ccccc1)NC(=O)[C@H](CCC(N)=O)NC(=O)[C@H](Cc1ccc(O)cc1)NC(=O)[C@H](CCCCN)NC(=O)[C@H](CS)NC(=O)[C@H](CCC(=O)O)NC(=O)[C@H](C)N)[C@@H](C)O)[C@@H](C)O)[C@@H](C)O)C(=O)N[C@@H](Cc1c[nH]cn1)C(=O)N[C@@H](CC(N)=O)C(=O)N[C@@H](C)C(=O)O [peptide 65-97] (H-AECKYQFQAWGECDLNTALKTRTGSLKRALHNA-OH; N-terminus and C-terminus assumed)	no effect	totally inhibit	No significant effect	–	–
FGF-2: another angiogenic factor, used as control of the specificity of the inhibition	–	–	–	5.8 times	–
KLTKPKPQAESKKKKKEGKKQEKMLD (listed as Homo sapiens) [peptide 111-136, C-terminal peptide fragment of HARP, amino acids 111-136, acts on the ALK receptor]	–	–	–	–	mitogenic / angiogenic activity [5]: neither mitogenic n or angiogenic; rate of tumour growth, times less than in untreated mice ([6]; PC3 in nude mice): 4 times; mean size of the tumours smaller than in untreated mice ([6]; day 27): 80%; reduction in the intra-tumoral vessels [7]: 55%
B1	–	–	–	3 times	Kd [8]: 0.05 nM
